Source: patent US20240368163A1, “COMPOUNDS AND METHODS FOR MODULATING SPLICING” (REMIX THERAPEUTICS INC., priority 2021, published 2024)
Values belong to the compound of their own block, whether it stands above or below them.

Legend:
Assay type in all cases: cell-based, human
MYB [1] = assay: Splicing RT-qPCR assay, MYB mRNA canonical junction (CJ) and alternative junction (AJ); details: for AC50: increase in AJ mRNA
Procedure, shortened: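 Splice switching is measured in A673 or K562 cells after 24 h compound exposure (maximum 10 uM, 3-fold steps). Canonical and alternative junction mRNA levels are quantified by RT-qPCR relative to housekeeper and DMSO.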

Target C = assay: HiBiT protein abundance assay, Target C; details: modified K562 cells
Procedure, shortened: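 Cells carrying the HiBiT knock-in were plated at 10000 cells/well, dosed with compound (10-point, 3-fold, 10 μM top final) and incubated 24 hours at 37 °C. Lytic reagent was then added and luminescence read. Percent response fed a 4PL fit for IC50.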

MYB [2] = assay: HiBiT protein abundance assay, MYB; details: modified K562 cells
Procedure, shortened: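 Target abundance was measured as HiBiT luminescence after 24 h compound treatment of tagged K562 cells. Responses were normalized between unmodified K562 and DMSO-treated tagged cells, and IC50 taken at the 50% level of a 4PL curve.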

[3] = Homo sapiens, 24 h, decrease in CJ mRNA, A673 or K562 cells, 24 hours treatment, RT-qPCR, read-out: MYB CJ IC50
[4] = Homo sapiens, 24 h, A673 or K562 cells, 24 hours treatment, RT-qPCR
[5] = Homo sapiens, RT-qPCR panel, canonical junction mRNA, compound concentration having 50% response in CJ decrease, read-out: MYB IC50 (decrease in CJ mRNA levels)
[6] = Homo sapiens, K562, 24 h, Table 13A
[7] = Homo sapiens, gene panel, CJ qPCR, protocol of Example 142, read-out: MYB IC50 (decrease in CJ mRNA levels)
[8] = Homo sapiens, K562, 24 h, Table 13B

SMILES: CN(c1ccc(-c2cc(F)c(-c3cnn(C)c3)c3cn[nH]c23)nn1)[C@@H]1C[C@H]2CC[C@@H](C1)N2 [Compound 291]
IC50 (MYB [1]; [3]): < 0.1 µM
AC50 (MYB [1]; [4]): < 0.1 µM
IC50 (MYB [1]; [5]): < 0.1 µM
IC50 (Target C; [6]): < 0.1 µM
IC50 (MYB [2]; [6]): < 0.1 µM

SMILES: CN(c1ccc(-c2ccc(-c3cn[nH]c3)c3ncsc23)nn1)[C@H]1C[C@]2(C)CC[C@](C)(C1)N2 [Compound 204]
IC50 (MYB [1]; [3]): < 0.1 µM
AC50 (MYB [1]; [4]): 0.1 to 1 µM
IC50 (MYB [1]; [5]): < 0.1 µM
IC50 (Target C; [6]): < 0.1 µM
IC50 (MYB [2]; [6]): < 0.1 µM

SMILES: CN(c1ccc(-c2ccc(-c3cn[nH]c3)c(F)n2)nn1)[C@@H]1C[C@H]2CC[C@@H](C1)N2 [Compound 922]
IC50 (MYB [1]; [7]): 0.1 to 1 µM
IC50 (Target C; [8]): < 0.1 µM
IC50 (MYB [2]; [8]): < 0.1 µM

IC50 (MYB [1]; [7]): 0.1 to 1 µM
IC50 (Target C; [8]): < 0.1 µM
IC50 (MYB [2]; [8]): 0.1 to 1 µM
SMILES: CCOc1nc(-c2ccc(OC3CC(C)(C)NC(C)(C)C3)nn2)ccc1-c1cn[nH]c1 [Compound 967]

SMILES: CN(c1ccc(-c2ccc(-c3cn[nH]c3)c3ncsc23)nn1)[C@H]1C[C@H]2COC[C@@H](C1)N2 [Compound 356, (endo)-N-methyl-N-{6-[4-(1H-pyrazol-4-yl)-1,3-benzothiazol-7-yl]pyridazin-3-yl}-3-oxa-9-azabicyclo[3.3.1]nonan-7-amine]
IC50 (MYB [1]; RT-qPCR panel, canonical junction mRNA, compound concentration having 50% response in CJ decrease, read-out: MYB IC50 (decrease in CJ mRNA levels)): 0.1 to 1 µM
IC50 (MYB [1]; decrease in CJ mRNA, A673 or K562 cells, 24 hours treatment, RT-qPCR, read-out: MYB CJ IC50): 0.1 to 1 µM
IC50 (Target C; Table 13A, 24 hours): < 0.1 µM
IC50 (MYB [2]; Table 13A, 24 hours): < 0.1 µM

SMILES: c1cnn(-c2ccc(-c3cnc(N[C@@H]4C[C@H]5CC[C@@H](C4)N5)nn3)c3cn[nH]c23)c1 [Compound 556]
IC50 (MYB [1]; [5]): 0.1 to 1 µM
IC50 (Target C; [6]): < 0.1 µM
IC50 (MYB [2]; [6]): 0.1 to 1 µM

SMILES: COc1nc(-c2ccc(N(C)[C@@H]3C[C@H]4CC[C@@H](C3)N4)nn2)ccc1-c1ccnc(O)c1 [Compound 961]
IC50 (MYB [1]; [7]): 0.1 to 1 µM
IC50 (Target C; [8]): 0.1 to 1 µM
IC50 (MYB [2]; [8]): 1 to 10 µM

SMILES: c1nc2c(-c3cn[nH]c3)ccc(-c3ccc(N[C@@H]4C[C@H]5CC[C@@H](C4)N5)nn3)c2s1 [Compound 202]
IC50 (MYB [1]; [3]): 0.1 to 1 µM
AC50 (MYB [1]; [4]): 0.1 to 1 µM
IC50 (MYB [1]; [5]): 0.1 to 1 µM
IC50 (Target C; [6]): 0.1 to 1 µM
IC50 (MYB [2]; [6]): 0.1 to 1 µM

IC50 (MYB [1]; [3]): 0.1 to 1 µM
IC50 (MYB [1]; [5]): 0.1 to 1 µM
IC50 (Target C; [6]): < 0.1 µM
IC50 (MYB [2]; [6]): 0.1 to 1 µM
SMILES: CC1(C)CC(Nc2ccc(-c3ccc(-c4cn[nH]c4)c4ncsc34)nn2)CC(C)(C)N1 [Compound 186]
AC50 (MYB [1]; [4]): > 10 µM

SMILES: CN(c1ccc(-c2ccc(-c3cn[nH]c3)c3ncsc23)nn1)C1CC(C)(C)NC(C)(C)C1 [Compound 132]
IC50 (MYB [1]; [3]): 0.1 to 1 µM
AC50 (MYB [1]; [4]): 1 to 10 µM
IC50 (MYB [1]; [5]): 0.1 to 1 µM
IC50 (Target C; [6]): 0.1 to 1 µM
IC50 (MYB [2]; [6]): 0.1 to 1 µM

SMILES: Fc1ccn(-c2ccc(-c3ccc(O[C@@H]4C[C@H]5CC[C@@H](C4)N5)nn3)c3scnc23)n1 [Compound 363]
IC50 (MYB [1]; [3]): 0.1 to 1 µM
AC50 (MYB [1]; [4]): 0.1 to 1 µM
IC50 (MYB [1]; [5]): 0.1 to 1 µM
IC50 (Target C; [6]): 0.1 to 1 µM
IC50 (MYB [2]; [6]): 0.1 to 1 µM

SMILES: CN(c1ccc(-c2ccc(-c3ccc(=O)n(C)c3)c3scnc23)nn1)C1CC(C)(C)NC(C)(C)C1 [Compound 178]
IC50 (MYB [1]; [3]): 1 to 10 µM
AC50 (MYB [1]; [4]): > 10 µM
IC50 (MYB [1]; [5]): 1 to 10 µM
IC50 (Target C; [6]): > 10 µM
IC50 (MYB [2]; [6]): 1 to 10 µM

SMILES: c1cnn(-c2ccc(-c3cnc(N[C@@H]4C[C@H]5CCC[C@@H](C4)N5)nn3)c3cn[nH]c23)c1 [Compound 561]
IC50 (MYB [1]; [5]): 0.1 to 1 µM
IC50 (Target C; [6]): < 0.1 µM
IC50 (MYB [2]; [6]): 0.1 to 1 µM

SMILES: COc1cc(-c2ccc(-c3ccc(N(C)[C@@H]4C[C@H]5CC[C@@H](C4)N5)nn3)nc2OC)ncn1 [Compound 954]
IC50 (MYB [1]; [7]): 1 to 10 µM
IC50 (Target C; [8]): 1 to 10 µM
IC50 (MYB [2]; [8]): 1 to 10 µM

SMILES: COc1cc(-c2ccc(-c3ccc(O[C@@H]4C[C@H]5CC[C@@H](C4)N5)nn3)c3scnc23)cnn1 [Compound 362]
IC50 (MYB [1]; [3]): 0.1 to 1 µM
AC50 (MYB [1]; [4]): < 0.1 µM
IC50 (MYB [1]; [5]): 0.1 to 1 µM
IC50 (Target C; [6]): < 0.1 µM
IC50 (MYB [2]; [6]): < 0.1 µM

SMILES: Cc1ncc(-c2ccc(-c3cnc(N(C)[C@@H]4C[C@H]5CCC[C@@H](C4)N5)nn3)c3scnc23)s1 [Compound 578]
IC50 (MYB [1]; [5]): 0.1 to 1 µM
IC50 (Target C; [6]): < 0.1 µM
IC50 (MYB [2]; [6]): 0.1 to 1 µM

SMILES: c1nc2c(-c3cn[nH]c3)ccc(-c3ccc(O[C@@H]4C[C@H]5CC[C@@H](C4)N5)nn3)c2s1 [Compound 184]
IC50 (MYB [1]; [3]): 0.1 to 1 µM
AC50 (MYB [1]; [4]): < 0.1 µM
IC50 (MYB [1]; [5]): 0.1 to 1 µM
IC50 (Target C; [6]): 0.1 to 1 µM
IC50 (MYB [2]; [6]): 0.1 to 1 µM

SMILES: c1nc2c(-c3cn[nH]c3)ccc(-c3ccc(N(C4CC4)C4C[C@H]5CCC[C@@H](C4)N5)nn3)c2s1 (stereo partly drawn) [Compound 311]
IC50 (MYB [1]; [3]): 0.1 to 1 µM
AC50 (MYB [1]; [4]): 0.1 to 1 µM
IC50 (MYB [1]; [5]): 0.1 to 1 µM
IC50 (Target C; [6]): < 0.1 µM
IC50 (MYB [2]; [6]): 0.1 to 1 µM
